14 compounds from PubChem BioAssay (NCI) can be followed below.

“And” between values parts separate entries of the source, which are not always exact repeats. Equal entries are not always repeated.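 The compound was tested at five concentrations on cells cultured in 96-well plates, with a 48-hour exposure period. TGI denotes the concentration required for complete inhibition of growth.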

Some test systems named below: SF-539 CNS; UACC-62 melanoma; BT-549 breast; TK-10 renal; PC-3 prostate; U251 CNS; LOX IMVI melanoma; HT29 colon; NCI-H23 lung; COLO 205 colon.
Holding throughout (experiment): inhibition of tumour cell growth, NCI panel, 48 h

In the case of `CCC(NC1=NCCO1)c1cccs1` (stereo not given), the TGI in the assay on SF-539 CNS is 29.8 µM; in the assay with UACC-62 melanoma it was 30.8 µM; in the assay on BT-549 breast, 37.7 µM; in the assay with TK-10 renal, 29.9 µM; in the assay with PC-3 prostate, 33.9 µM; in the assay on U251 CNS, 26.3 µM. The TGI in the assay on LOX IMVI melanoma worked out at 66.7 µM; with HT29 colon, 63.9 µM; with NCI-H23 lung, 31.6 µM; in the assay on COLO 205 colon, 34.9 µM.
For the compound `COc1cc(CS(=O)c2ccc(O)cc2)cc(OC)c1OC` (stereo not given), the TGI in the assay on SF-539 CNS, with UACC-62 melanoma, in the assay with BT-549 breast, in the assay on TK-10 renal, in the assay on PC-3 prostate and in the assay with U251 CNS was more than 100 µM each time. Also, the TGI in the assay with LOX IMVI melanoma, in the assay with HT29 colon, in the assay on NCI-H23 lung and in the assay with COLO 205 colon was more than 100 µM each time.
For the compound `CCN1CCC(O)(/C=C/c2ccc(OC)cc2)C(C(=O)/C=C/c2ccc(OC)cc2)C1` (stereo not given), the TGI in the assay with SF-539 CNS is 27.8 µM; in the assay with UACC-62 melanoma, 26.1 µM; in the assay on BT-549 breast it was 28.9 µM; with TK-10 renal, 26.7 µM; in the assay on PC-3 prostate, 23.5 µM; with U251 CNS, 19.7 µM. The TGI in the assay on LOX IMVI melanoma is 8.82 µM; in the assay with HT29 colon it was 25.4 µM; in the assay on NCI-H23 lung, 27.9 µM; in the assay with COLO 205 colon it was 20.6 µM.
For the compound `CC(C)(C)CC(C)(C)c1ccc(O)c(C[N+](C)(C)[O-])c1`, the TGI with SF-539 CNS, with UACC-62 melanoma, in the assay on BT-549 breast, in the assay with TK-10 renal, with PC-3 prostate and with U251 CNS was more than 100 µM in each case. The TGI in the assay with LOX IMVI melanoma, with HT29 colon, with NCI-H23 lung and in the assay with COLO 205 colon was more than 100 µM in each case.
As to `COc1ccc(Nc2nc(N)c(C(=O)c3cccs3)s2)cc1`, the TGI in the assay with SF-539 CNS is 19.5 µM; in the assay on UACC-62 melanoma, more than 54.2 µM; with BT-549 breast, more than 100 µM; in the assay on TK-10 renal, 24.3 µM; in the assay on PC-3 prostate, more than 60.2 µM; in the assay on U251 CNS, more than 100 µM. Further, the TGI in the assay with LOX IMVI melanoma is more than 100 µM; in the assay with HT29 colon it was more than 41.4 µM; in the assay with NCI-H23 lung, more than 100 µM; in the assay with COLO 205 colon, 21.6 µM.
On to `COC(=O)C1=C(C(=O)OC)SC2(S1)C(C(=O)OC)=C(C(=O)OC)Sc1c2ssc1=NC(C)(C)C`, for which the TGI amounted to 2.69 µM in the assay on SF-539 CNS; 2.97 µM with UACC-62 melanoma; 7.47 µM in the assay on BT-549 breast; 3.27 µM in the assay with TK-10 renal; 2.75 µM with PC-3 prostate; 3.54 µM in the assay on U251 CNS. Also, the TGI in the assay with LOX IMVI melanoma was determined as 2.4 µM; in the assay on HT29 colon, 2.57 µM; in the assay with NCI-H23 lung it was 6.66 µM; in the assay on COLO 205 colon, 3.22 µM.
Regarding `CC(=O)/C(=C/N1CCNC1=S)C(=O)Nc1ccccc1C`, the TGI with SF-539 CNS, with UACC-62 melanoma, with BT-549 breast, in the assay with TK-10 renal, with PC-3 prostate and in the assay on U251 CNS was more than 100 µM each time. Further, the TGI with LOX IMVI melanoma, in the assay with HT29 colon, in the assay with NCI-H23 lung and in the assay on COLO 205 colon was more than 100 µM throughout.
Consider `CC(C)(C)OC(=O)NCC(=O)N1CCN(C(=O)CNC(=O)OC(C)(C)C)CC1`, for which the TGI in the assay with SF-539 CNS, in the assay on UACC-62 melanoma, in the assay on BT-549 breast, in the assay with TK-10 renal, in the assay on PC-3 prostate and in the assay on U251 CNS was more than 100 µM each time. Moreover, the TGI in the assay with LOX IMVI melanoma, in the assay with HT29 colon, in the assay with NCI-H23 lung and with COLO 205 colon was more than 100 µM each time.
Regarding `C/C=C(/C)C(=O)O[C@H]1[C@H](O)CC(c2ccc3c(c2O)C(O)=C2C(=O)C4(OC)C(O)=C(C(N)=O)C(=O)[C@H](CC(=O)c5ccccc5O)C4CC2[C@@]3(C)OC)O[C@@H]1C` (stereo not given in full), the TGI with SF-539 CNS is 0.101 µM; with UACC-62 melanoma, 0.236 µM; with BT-549 breast, 0.892 µM; in the assay with TK-10 renal, 6.19 µM and 4.65 µM; in the assay on PC-3 prostate it was 0.187 µM; in the assay on U251 CNS it was 0.148 µM and 0.117 µM. For the same compound, the TGI in the assay on LOX IMVI melanoma is 0.132 µM; with HT29 colon, 1.19 µM and 0.255 µM; in the assay on NCI-H23 lung, 0.228 µM and 0.067 µM; in the assay on COLO 205 colon it was 0.0288 µM.
As to `Cc1ccc([N+](=O)[O-])c2c(NCC(O)CO)ccnc12` (stereo not given), the TGI with SF-539 CNS is 48.6 µM; in the assay with UACC-62 melanoma, more than 100 µM; with BT-549 breast, more than 100 µM; in the assay on TK-10 renal it was more than 100 µM; with PC-3 prostate, more than 100 µM; in the assay on U251 CNS it was more than 100 µM. Further, the TGI in the assay with LOX IMVI melanoma is more than 100 µM; with HT29 colon, more than 100 µM; with NCI-H23 lung, more than 100 µM; in the assay on COLO 205 colon it was 75.1 µM.
`Cn1c(O)c(C=Nc2ccccc2Cl)c(=O)n(C)c1=O`: the TGI in the assay with SF-539 CNS is 60.7 µM; with UACC-62 melanoma it was more than 100 µM; in the assay with BT-549 breast, more than 100 µM; in the assay on TK-10 renal, more than 100 µM; in the assay with PC-3 prostate it was more than 100 µM; in the assay on U251 CNS, more than 100 µM. Besides, the TGI with LOX IMVI melanoma was 32.2 µM; with HT29 colon, more than 100 µM; in the assay with NCI-H23 lung, more than 100 µM; in the assay on COLO 205 colon, more than 100 µM.
Take `COc1ccc(C(=O)/C=C/c2cc(O)c(O)cc2F)c(OC)c1`: the TGI in the assay with SF-539 CNS turned out to be 31 µM; with UACC-62 melanoma, 23.1 µM; in the assay on BT-549 breast, 24.4 µM; in the assay with TK-10 renal it was 66.3 µM; in the assay with PC-3 prostate it was 25.4 µM; in the assay with U251 CNS, 20.9 µM. Also, the TGI with LOX IMVI melanoma was found to be 26.9 µM; in the assay with HT29 colon it was 26 µM; in the assay on NCI-H23 lung it was 26.6 µM; with COLO 205 colon, 29.8 µM.
Take `O=c1ccc2ccc(O)cc2o1`: the TGI in the assay with SF-539 CNS, with UACC-62 melanoma, in the assay on BT-549 breast, in the assay with TK-10 renal, with PC-3 prostate and with U251 CNS was more than 100 µM throughout. For the same compound, the TGI in the assay on LOX IMVI melanoma, with HT29 colon, with NCI-H23 lung and in the assay with COLO 205 colon was more than 100 µM in each case.
For the compound `CN1CCN(C2=CC(=O)c3c(O)ccc(O)c3C2=O)CC1`, the TGI with SF-539 CNS is 2.96 µM; with UACC-62 melanoma, 3.13 µM; in the assay on BT-549 breast, 3.14 µM; in the assay with TK-10 renal, 4.22 µM; in the assay on PC-3 prostate it was more than 10 µM; with U251 CNS it was 2.97 µM. Also, the TGI in the assay with LOX IMVI melanoma came to 1.79 µM; in the assay with HT29 colon, 0.946 µM; with NCI-H23 lung, 2.8 µM; in the assay with COLO 205 colon it was 0.31 µM.
